Patent US6689773B2, “Uracil substituted phenyl sulfamoyl carboxamides” (BASF Aktiengesellschaft, priority 2000, dated 2004)

Columns and labels:
Assay type in all cases: in vivo
[1] = tested on: ALOMY, Blackgrass, Alopecurus myosuroides; assay: Preemergence herbicidal evaluation (Example 148); conditions: rating scale 0-9, two to four weeks after treatment
Procedure: (§1) The scale is based upon a visual observation of plant stand, vigor, malformation, size, chlorosis and overall plant appearance as compared with a control.
(§2) The herbicidal activity of the compounds of the present invention was evaluated by the following tests wherein the seeds of a variety of monocotyledonous and dicotyledonous plants were separately mixed with potting soil and planted on top of approximately one inch of soil in separate pint cups. After planting, the cups were sprayed with the selected aqueous acetone solution containing test compound in sufficient quantity to provide the equivalent of about 0.125 to 0.250 kg per hectare of test compound per cup. The treated cups were then placed on greenhouse benches, watered and cared for in accordance with conventional greenhouse procedures. From two to four weeks after treatment, the tests were terminated and each cup was examined and rated according to the rating system provided in Example 94. When more than one test was performed for a given compound, the data were averaged.

[2] = tested on: ZEAMX, Field corn, Zea mays L.; assay: Preemergence herbicidal evaluation (Example 148); conditions: rating scale 0-9, two to four weeks after treatment
Procedure: as §1, §2

[3] = tested on: DIGSA, Crabgrass, (Hairy) L, Digitaria sanguinalis, (L)Scop; assay: Preemergence herbicidal evaluation (Example 148); conditions: rating scale 0-9, two to four weeks after treatment
Procedure: as §1, §2

[4] = tested on: CHEAL, Lambsquarters, Chenopodium album, L. Common; assay: Preemergence herbicidal evaluation (Example 148); conditions: rating scale 0-9, two to four weeks after treatment
Procedure: as §1, §2

[5] = tested on: ABUTH, Velvetleaf, Abutilon theophrasti, Medic.; assay: Preemergence herbicidal evaluation (Example 148); conditions: rating scale 0-9, two to four weeks after treatment
Procedure: as §1, §2

[6] = tested on: SETVI, Green foxtail, Setaria viridis, (L.)Beau; assay: Preemergence herbicidal evaluation (Example 148); conditions: rating scale 0-9, two to four weeks after treatment
Procedure: as §1, §2

[7] = tested on: ECHCG, Barnyardgrass, Echinochloa crusgalli, (L.)Beau; assay: Preemergence herbicidal evaluation (Example 148); conditions: rating scale 0-9, two to four weeks after treatment
Procedure: as §1, §2

[8] = tested on: IPOHE, Morningglory, Ivyleaf, Ipomoea hederacea, (L)Jacq.; assay: Preemergence herbicidal evaluation (Example 148); conditions: rating scale 0-9, two to four weeks after treatment
Procedure: as §1, §2

[9] = tested on: AMBEL, Ragweed, Common, Ambrosia artemiisifolia, L.; assay: Preemergence herbicidal evaluation (Example 148); conditions: rating scale 0-9, two to four weeks after treatment
Procedure: as §1, §2

[10] = tested on: XANST, Cocklebur, Xanthium strumariam; assay: Preemergence herbicidal evaluation (Example 148); conditions: rating scale 0-9, two to four weeks after treatment
Procedure: as §1, §2

[11] = tested on: GLXMA, Soybean, Glycine max, (L.) Merr.; assay: Preemergence herbicidal evaluation (Example 148); conditions: rating scale 0-9, two to four weeks after treatment
Procedure: as §1, §2

[12] = tested on: TRZAW, Winter wheat, Tritium Aestivum, L. (Winter); assay: Preemergence herbicidal evaluation (Example 148); conditions: rating scale 0-9, two to four weeks after treatment
Procedure: as §1, §2

[13] = tested on: ALOMY, Blackgrass, Alopecurus myosuroides; assay: Postemergence herbicidal evaluation (Example 147); conditions: rating scale 0-9, two to three weeks after treatment
Procedure: (§3) Seedling plants were grown in jiffy flats for about two weeks. The test compounds were dispersed in 80/20 acetone/water mixtures containing 1.0% SUN-IT®II, a methylated seed oil, in sufficient quantities to provide the equivalent of about 0.016 to 0.032 kg per hectare of active compound when applied to the plants through a spray nozzle operating at 40 psi for a predetermined time. After spraying, the plants were placed on greenhouse benches and were cared for in accordance with conventional greenhouse procedures. Approximately two to three weeks after treatment, the seedling plants were examined and rated according to the rating scale (0-9) set forth below. Where more than one test is involved for a given compound, the data are averaged. [table] The scale is based upon a visual observation of plant stand, vigor, malformation, size, chlorosis and overall plant appearance as compared with a control. Plant species employed in these evaluations are reported by header abbreviation, common name and scientific name. [table]

[14] = tested on: ZEAMX, Field corn, Zea mays L.; assay: Postemergence herbicidal evaluation (Example 147); conditions: rating scale 0-9, two to three weeks after treatment
Procedure: as §3

[15] = tested on: DIGSA, Crabgrass, (Hairy) L, Digitaria sanguinalis, (L)Scop; assay: Postemergence herbicidal evaluation (Example 147); conditions: rating scale 0-9, two to three weeks after treatment
Procedure: as §3

[16] = tested on: CHEAL, Lambsquarters, Chenopodium album, L. Common; assay: Postemergence herbicidal evaluation (Example 147); conditions: rating scale 0-9, two to three weeks after treatment
Procedure: as §3

[17] = tested on: ABUTH, Velvetleaf, Abutilon theophrasti, Medic.; assay: Postemergence herbicidal evaluation (Example 147); conditions: rating scale 0-9, two to three weeks after treatment
Procedure: as §3

[18] = tested on: SETVI, Green foxtail, Setaria viridis, (L.)Beau; assay: Postemergence herbicidal evaluation (Example 147); conditions: rating scale 0-9, two to three weeks after treatment
Procedure: as §3

[19] = tested on: ECHCG, Barnyardgrass, Echinochloa crusgalli, (L.)Beau; assay: Postemergence herbicidal evaluation (Example 147); conditions: rating scale 0-9, two to three weeks after treatment
Procedure: as §3

[20] = tested on: IPOHE, Morningglory, Ivyleaf, Ipomoea hederacea, (L)Jacq.; assay: Postemergence herbicidal evaluation (Example 147); conditions: rating scale 0-9, two to three weeks after treatment
Procedure: as §3

[21] = tested on: AMBEL, Ragweed, Common, Ambrosia artemiisifolia, L.; assay: Postemergence herbicidal evaluation (Example 147); conditions: rating scale 0-9, two to three weeks after treatment
Procedure: as §3

[22] = tested on: GLXMA, Soybean, Glycine max, (L.) Merr.; assay: Postemergence herbicidal evaluation (Example 147); conditions: rating scale 0-9, two to three weeks after treatment
Procedure: as §3

[23] = tested on: TRZAW, Winter wheat, Tritium Aestivum, L. (Winter); assay: Postemergence herbicidal evaluation (Example 147); conditions: rating scale 0-9, two to three weeks after treatment
Procedure: as §3

C#CCNS(=O)(=O)NC(=O)c1cc(-n2c(=O)cc(C(F)(F)F)n(C)c2=O)c(F)cc1Cl [Example 71]
3.0: Preemergence herbicidal rating DIGSA ([3]; rate 0.25 kg/ha) | Preemergence herbicidal rating ECHCG ([7]; rate 0.25 kg/ha) | Postemergence herbicidal rating DIGSA ([15]; rate 0.032 kg/ha) | Postemergence herbicidal rating ECHCG ([19]; rate 0.032 kg/ha)
5.0: Postemergence herbicidal rating CHEAL ([16]; rate 0.016 kg/ha) | Postemergence herbicidal rating CHEAL ([16]; rate 0.032 kg/ha) | Postemergence herbicidal rating SETVI ([18]; rate 0.032 kg/ha)
7.0: Preemergence herbicidal rating CHEAL ([4]; rate 0.25 kg/ha) | Preemergence herbicidal rating XANST ([10]; rate 0.25 kg/ha)
8.0: Preemergence herbicidal rating AMBEL ([9]; rate 0.125 kg/ha) | Preemergence herbicidal rating AMBEL ([9]; rate 0.25 kg/ha) | Postemergence herbicidal rating IPOHE ([20]; rate 0.016 kg/ha) | Postemergence herbicidal rating GLXMA ([22]; rate 0.016 kg/ha) | Postemergence herbicidal rating GLXMA ([22]; rate 0.032 kg/ha)
9.0: Preemergence herbicidal rating CHEAL ([4]; rate 0.125 kg/ha) | Preemergence herbicidal rating ABUTH ([5]; rate 0.125 kg/ha) | Preemergence herbicidal rating ABUTH ([5]; rate 0.25 kg/ha) | Preemergence herbicidal rating IPOHE ([8]; rate 0.125 kg/ha) | Preemergence herbicidal rating IPOHE ([8]; rate 0.25 kg/ha) | Postemergence herbicidal rating ABUTH ([17]; rate 0.016 kg/ha) | Postemergence herbicidal rating ABUTH ([17]; rate 0.032 kg/ha) | Postemergence herbicidal rating IPOHE ([20]; rate 0.032 kg/ha) | Postemergence herbicidal rating AMBEL ([21]; rate 0.032 kg/ha)
6.0: Postemergence herbicidal rating AMBEL ([21]; rate 0.016 kg/ha)
2.0: Preemergence herbicidal rating SETVI ([6]; rate 0.25 kg/ha) | Preemergence herbicidal rating GLXMA ([11]; rate 0.25 kg/ha) | Postemergence herbicidal rating DIGSA ([15]; rate 0.016 kg/ha) | Postemergence herbicidal rating ECHCG ([19]; rate 0.016 kg/ha)
4.5: Postemergence herbicidal rating TRZAW ([23]; rate 0.016 kg/ha) | Postemergence herbicidal rating TRZAW ([23]; rate 0.032 kg/ha)
1.0: Preemergence herbicidal rating ZEAMX ([2]; rate 0.25 kg/ha) | Postemergence herbicidal rating ALMOY ([13]; rate 0.016 kg/ha) | Postemergence herbicidal rating ALMOY ([13]; rate 0.032 kg/ha)
6.5: Postemergence herbicidal rating ZEAMX ([14]; rate 0.016 kg/ha) | Postemergence herbicidal rating ZEAMX ([14]; rate 0.032 kg/ha)
4.0: Postemergence herbicidal rating SETVI ([18]; rate 0.016 kg/ha)
0.0: Preemergence herbicidal rating ALMOY ([1]; rate 0.125 kg/ha) | Preemergence herbicidal rating ALMOY ([1]; rate 0.25 kg/ha) | Preemergence herbicidal rating ZEAMX ([2]; rate 0.125 kg/ha) | Preemergence herbicidal rating DIGSA ([3]; rate 0.125 kg/ha) | Preemergence herbicidal rating SETVI ([6]; rate 0.125 kg/ha) | Preemergence herbicidal rating ECHCG ([7]; rate 0.125 kg/ha) | Preemergence herbicidal rating XANST ([10]; rate 0.125 kg/ha) | Preemergence herbicidal rating GLXMA ([11]; rate 0.125 kg/ha) | Preemergence herbicidal rating TRZAW ([12]; rate 0.125 kg/ha) | Preemergence herbicidal rating TRZAW ([12]; rate 0.25 kg/ha)
